What was measured:
[1] = biological target: human S1P1 (Homo sapiens (Human), UniProt P21453); test: S1P1 binding assay (33P-S1P radioligand competition, CHO cell membranes); conditions: phosphate examples; read-out: S1P1 Binding
Experimental: Membranes were prepared from CHO cells expressing human S1P1. Cells pellets (1×10^9 cells/pellet) were suspended in buffer containing 20 mM HEPES (4-(2-hydroxyethyl)-1-piperazineethanesulfonic acid), pH 7.5, 50 mM NaCl, 2 mM EDTA (Ethylenediaminetetraacetic acid) and Protease Inhibitor cocktail (Roche), and disrupted on ice using the Polytron homogenizer. The homogenate was centrifuged at 20,000 rpm (48,000 g) and the supernatant was discarded. The membrane pellets were resuspended in buffer containing 50 mM HEPES, pH 7.5, 100 mM NaCl, 1 mM MgCl2, 2 mM EDTA and stored in aliquots at −80° C. after protein concentration determination.

[2] = biological target: S1P1 (membranes prepared from S1P1/CHO cells) (Homo sapiens (Human), UniProt P21453); test: Receptor [35S] GTPγS binding assay (S1P1 GTPγS); type: biochemical; conditions: phosphate examples; read-out: S1P1 GTPγS
Chain of S1P1 (membranes prepared from S1P1/CHO cells) (P21453 whole entry): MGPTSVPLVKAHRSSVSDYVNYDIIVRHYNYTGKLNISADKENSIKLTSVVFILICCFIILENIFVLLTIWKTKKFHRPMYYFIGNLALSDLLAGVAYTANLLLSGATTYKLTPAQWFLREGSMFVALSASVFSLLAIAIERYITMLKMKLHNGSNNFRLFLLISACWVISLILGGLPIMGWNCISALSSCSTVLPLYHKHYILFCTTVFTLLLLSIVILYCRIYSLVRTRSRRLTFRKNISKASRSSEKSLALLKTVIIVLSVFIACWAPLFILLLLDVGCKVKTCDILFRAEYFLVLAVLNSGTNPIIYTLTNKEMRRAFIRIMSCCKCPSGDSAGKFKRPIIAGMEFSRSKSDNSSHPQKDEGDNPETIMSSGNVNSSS
Experimental: (§1) Receptor [^35S] GTPγS Binding Assays: (S1P1 GTPγS/S1P3 GTPγS)
Compounds were loaded in a 384 Falcon v-bottom plate (0.5 μl/well in a 11 point, 3-fold dilution). Membranes prepared from S1P1/CHO cells or EDG3-Gal5-bla HEK293T cells (EDG3 equivalent S1P3) were added to the compound plate (40 μl/well, final protein 3 μg/well) with MULTIDROP®. [^35S] GTP (1250 Ci/mmol, Perkin Elmer) was diluted in assay buffer: 20 mM HEPES, pH7.5, 10 mM MgCl2, 150 mM NaCl, 1 mM EGTA (ethylene glycol tetraacetic acid), 1 mM DTT (Dithiothreitol), 10 μM GDP, 0.1% fatty acid free BSA, and 10 μg/ml Saponin to 0.4 nM. 40 μl of the [^35S] GTP solution was added to the compound plate with a final concentration of 0.2 nM. The reaction was kept at room temperature for 45 min. At the end of incubation, all the mixtures in the compound plate were transferred to Millipore 384-well FB filter plates via the VELOCITY11® Vprep liquid handler. The filter plate was washed with water 4 times by using the manifold Embla plate washer and dried at 60° C. for 45 min. MicroScint 20 scintillation fluid (30 μl) was added to each well for counting on the Packard TOPCOUNT®. […]

[3] = biological target: S1P3 (membranes prepared from EDG3-Gal5-bla HEK293T cells) (Homo sapiens (Human), UniProt Q99500); test: Receptor [35S] GTPγS binding assay (S1P3 GTPγS); type: biochemical; conditions: phosphate examples; read-out: S1P3 GTPγS
Chain of S1P3 (membranes prepared from EDG3-Gal5-bla HEK293T cells) (Q99500 whole entry): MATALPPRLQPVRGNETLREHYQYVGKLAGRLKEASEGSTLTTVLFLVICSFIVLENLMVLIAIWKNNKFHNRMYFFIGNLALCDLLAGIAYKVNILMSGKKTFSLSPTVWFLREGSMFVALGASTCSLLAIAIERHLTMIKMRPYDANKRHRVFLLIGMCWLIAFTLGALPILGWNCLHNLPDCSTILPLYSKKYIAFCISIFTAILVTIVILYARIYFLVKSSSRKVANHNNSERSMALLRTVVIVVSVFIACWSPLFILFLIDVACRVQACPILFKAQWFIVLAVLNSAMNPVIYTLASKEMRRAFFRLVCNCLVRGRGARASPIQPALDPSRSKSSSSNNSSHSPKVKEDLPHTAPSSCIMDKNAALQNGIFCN
Experimental: as §1
Compounds were loaded in a 384 Falcon v-bottom plate (0.5 μl/well in a 11 point, 3-fold dilution). Membranes prepared from S1P1/CHO cells or EDG3-Gal5-bla HEK293T cells (EDG3 equivalent S1P3) were added to the compound plate (40 μl/well, final protein 3 μg/well) with MULTIDROP®. [^35S] GTP (1250 Ci/mmol, Perkin Elmer) was diluted in assay buffer: 20 mM HEPES, pH7.5, 10 mM MgCl2, 150 mM NaCl, 1 mM EGTA (ethylene glycol tetraacetic acid), 1 mM DTT (Dithiothreitol), 10 μM GDP, 0.1% fatty acid free BSA, and 10 μg/ml Saponin to 0.4 nM. 40 μl of the [^35S] GTP solution was added to the compound plate with a final concentration of 0.2 nM. The reaction was kept at room temperature for 45 min. At the end of incubation, all the mixtures in the compound plate were transferred to Millipore 384-well FB filter plates via the VELOCITY11® Vprep liquid handler. The filter plate was washed with water 4 times by using the manifold Embla plate washer and dried at 60° C. for 45 min. MicroScint 20 scintillation fluid (30 μl) was added to each well for counting on the Packard TOPCOUNT®.
A smaller value for GTPγS S1P1 EC50 value indicated greater activity for the compound in the GTPγS S1P1 binding assay. A larger value for the GTPγS S1P3 EC50 value indicated less activity in the GTPγS S1P3 binding assay. […] Thus the compounds of the present invention may be used in treating, preventing, or curing various S1P1 receptor-related conditions while reducing or minimizing the side effects due to S1P3 activity. The selectivity of the compounds of the present invention indicate their potential use in treating, preventing, or curing autoimmune and inflammatory diseases such as multiple sclerosis, rheumatoid arthritis, inflammatory bowel disease, lupus, psoriasis, or vascular diseases, while reducing or minimizing possible side effects due to S1P3 activity. Other potential uses of the compounds of the present invention include minimizing or reducing rejection of transplanted organs, while reducing or minimizing side effects due to S1P3 activity.

[4] = biological target: hS1P1/CHO cells (Homo sapiens (Human), UniProt P21453); test: hS1P1 ERK phosphorylation (S1P1 pERK); type: cell-based; conditions: phosphate examples
Chain of hS1P1/CHO cells (P21453 whole entry): as the sequence (P21453 whole entry) above
Experimental: hS1P1 ERK Phosphorylation (S1P1 pERK)
hS1P1/CHO cells were plated into BD Amine 384-well plates the day before the assay. On the day of the assay, growth medium was removed and replaced with serum-free medium (Ham's F-12 Invitrogen) and incubated for 2 hours. Test compounds pre-diluted in HBSS (Gibco)/20 mM HEPES (Gibco) were transferred to the cell plates and incubated for 7 minutes at 37° C. Cells were lysed in lysis buffer (Perkin Elmer) and phospho-ERK was measured using the SureFire pERK kit (Perkin Elmer) as described by the manufacturer. Data was plotted as percentage activation of the test compound relative to the efficacy of 10 μM S1P.

Chain of human S1P1 (P21453 whole entry): as above

Structure (SMILES) | IC50 [1] | EC50 [2] | EC50 [3] | EC50 [4]
N[C@]1(COP(=O)(O)O)CC[C@H](c2ccc3c(c2)CC[C@H](C[S+]([O-])c2ccccc2)C3)C1 (stereo partly drawn) [Example 667, ((1R,3S)-1-amino-3-((6S)-6-((phenylsulfinyl)methyl)-5,6,7,8-tetrahydronaphthalen-2-yl)cyclopentyl)methyl dihydrogen phosphate] | 0.1 to 1 µM | 0.1 to 1 µM | > 0.625 µM | 0.1 to 1 µM
CCCCOC[C@@H]1COc2cc([C@H]3CC[C@](N)(COP(=O)(O)O)C3)ccc2O1 [compound 414] | < 0.01 µM | 0.01 to 0.1 µM | > 0.625 µM | 1 to 10 µM
CCCCOC[C@@H]1COc2cc([C@@H]3CC[C@](N)(COP(=O)(O)O)C3)ccc2O1 [compound 415] | 0.01 to 0.1 µM | 0.01 to 0.1 µM | > 0.625 µM | 0.01 to 0.1 µM
CCCCCCN1CCc2cc([C@@H]3CC[C@](N)(COP(=O)(O)O)C3)ccc2C1=O [compound 417] | 0.01 to 0.1 µM | 0.1 to 1 µM | > 0.625 µM | < 0.01 µM
CCCCCCC1CCc2cc([C@@H]3CC[C@](N)(COP(=O)(O)O)C3)ccc2O1 (stereo partly drawn) [compound 420] | 0.01 to 0.1 µM | 0.01 to 0.1 µM | > 0.625 µM | 1 to 10 µM
CCCCCCC1Cc2ccc([C@H]3CC[C@](N)(COP(=O)(O)O)C3)cc2CO1 (stereo partly drawn) [compound 421] | < 0.01 µM | < 0.01 µM | > 0.625 µM | < 0.01 µM
CCCCCC[C@@H]1COc2cc([C@@H]3CC[C@](N)(COP(=O)(O)O)C3)ccc2C1 [compound 423] | 0.1 to 1 µM | 0.1 to 1 µM | > 0.625 µM | 0.01 to 0.1 µM
CCCCCC[C@H]1COc2cc([C@H]3CC[C@](N)(COP(=O)(O)O)C3)ccc2C1 [compound 424] | 0.01 to 0.1 µM | 0.01 to 0.1 µM | > 0.625 µM | < 0.01 µM
CCCCCC[C@H]1COc2cc([C@@H]3CC[C@](N)(COP(=O)(O)O)C3)ccc2C1 [compound 425] | < 0.01 µM | < 0.01 µM | > 0.625 µM | < 0.01 µM
CCCCCC[C@H]1Cc2ccc([C@H]3CC[C@](N)(COP(=O)(O)O)C3)cc2CO1 [compound 426] | 0.01 to 0.1 µM | < 0.01 µM | > 0.625 µM | < 0.01 µM
CCCCCC[C@@H]1Cc2ccc([C@H]3CC[C@](N)(COP(=O)(O)O)C3)cc2CO1 [compound 427] | 0.01 to 0.1 µM | < 0.01 µM | > 0.625 µM | < 0.01 µM
CCCCCCC[C@H]1Cc2ccc([C@H]3CC[C@](N)(COP(=O)(O)O)C3)cc2CO1 [compound 428] | < 0.01 µM | < 0.01 µM | > 0.625 µM | 0.01 to 0.1 µM
CCCCCO[C@@H]1CCc2cc([C@H]3CC[C@](N)(COP(=O)(O)O)C3)ccc2C1 [compound 430] | 0.01 to 0.1 µM | 0.01 to 0.1 µM | > 0.625 µM | < 0.01 µM
CCCCCO[C@H]1CCc2cc([C@H]3CC[C@](N)(COP(=O)(O)O)C3)ccc2C1 [compound 431] | 0.01 to 0.1 µM | 0.1 to 1 µM | > 0.625 µM | < 0.01 µM
CCCCCCCOC1CCc2cc([C@H]3CC[C@](N)(COP(=O)(O)O)C3)ccc2C1 (stereo partly drawn) [compound 432] | < 0.01 µM | < 0.01 µM | > 0.1 µM | 0.01 to 0.1 µM

From patent US9522888B2, “Substituted bicyclic compounds” (BRISTOL-MYERS SQUIBB COMPANY, priority 2014, dated 2016)
